Measurements published in patent US10238633B2, “Methods for treating pulmonary emphysema using substituted 2-Aza-bicyclo[2.2.1]heptane-3-carboxylic acid (benzyl-cyano-methyl)-amides inhibitors of Cathepsin C” (Boehringer Ingelheim International GmbH, priority 2013, dated 2019).

Tests used:
[1] = Determination of metabolic stability with human liver microsomes; details: pooled human liver microsomes, 37° C., test compound 1 μM, NADPH
Method: Determination of Metabolic Stability with Human Liver Microsomes
The metabolic degradation of the test compound is assayed at 37° C. with pooled human liver microsomes. The final incubation volume of 100 μl per time point contains TRIS buffer pH 7.6 (0.1 M), magnesium chloride (5 mM), microsomal protein (1 mg/ml) and the test compound at a final concentration of 1 μM. Following a short preincubation period at 37° C., the reactions are initiated by addition of beta-nicotinamide adenine dinucleotide phosphate, reduced form (NADPH, 1 mM) and terminated by transferring an aliquot into acetonitrile after different time points. Additionally, the NADPH-independent degradation is monitored in incubations without NADPH, terminated at the last time point. The [%] remaining test compound after NADPH independent incubation is reflected by the parameter c(control) (metabolic stability). The quenched incubations are pelleted by centrifugation (10,000 g, 5 min). An aliquot of the supernatant is assayed by LC-MS/MS for the amount of parent compound.
The half-life (t1/2 INVITRO) is determined by the slope of the semilogarithmic plot of the concentration-time profile. The intrinsic clearance (CL_[sequence]) is calculated by considering the amount of protein in the incubation: CL_[sequence] [μl/min/mg protein]=(In 2/(half-life [min]*protein content [mg/ml]))*1,000.

[2] = tested on: Neutrophil elastase activity in U937 cells; assay: Determination of neutrophil elastase activity in U937 cytosolic lysate preparation after incubation with test compound; type: cell-based; details: Homo sapiens, U-937, read-out: Reduction of NE-activity in U937 cells IC50
Method: Determination of Neutrophil Elastase Activity in U937 Cytosolic Lysate Preparation after Incubation with Test Compound
Optiplate 384F were purchased from PerkinElmer (Prod. No. #6007270). 24 well Nunclon cell culture plates (No. 142475) and 96 well plates (No. 267245) were from Nunc. Dimethylsulfoxid (DMSO) was from Sigma (Prod. No. D8418). Nonidet-P40 (NP40) was from USBiological (Prod. No. N3500)
Substrate, specific for Neutrophil elastase, was from Bachem (MeOSuc-Ala-Ala-Pro-Val-AMC; Prod. No. 1-1270).
Human neutrophil elastase was from Calbiochem (Prod. No. 324681)
Tris-buffer (100 mM Tris; 1M NaCL; pH 7.5)
Tris-buffer+HSA 0.1%; Human Serum Albumin from Calbiochem (Cat#. 126658)
Serine-protease buffer (20 mM Tris; 100 mM NaCL; pH 7.5)+0.1% HSA
Serine protease lysis buffer: 20 mM Tris-HCL; 100 mM NaCl pH 7.5; +0.2% Nonidet-P40;
PBS: phosphate buffered saline, without Ca and Mg, from Gibco
U937 from ECACC (Cat. No. 85011440) cultured in suspension at 37° C. and 5% CO2.
Cell density: 0.2-1 Mio. Cells/ml.
Medium: RPMI1640 GlutaMAX (No. 61870) with 10% FCS from Gibco
Cell Seeding and Treatment:
Compounds in 100% DMSO were diluted in Medium (—FCS) with 10% DMSO and further diluted according to the experiment planned.
20 μl of the compound solution was transferred in the respective wells of the 24 well plate and diluted with 2 ml cell suspension/well containing […] (final concentration of DMSO=0.1%). Compound dilution factor=100
Compounds (up to 7 concentrations) were tested in triplicates with 3 wells for the DMSO 0.1% control, incubated for 48 hours without medium change at 37° C., 5% CO2 and 95% relative humidity.
Cell Harvesting and Cell Lysate:
Transfer the cell suspension in 2.2 ml Eppendorf cups. Separate cells from medium by centrifugation (400×g; 5 min; RT); discard the supernatant. Resuspend in 1 ml PBS; centrifugation (400×g; 5 min; RT); wash cells twice with PBS. Add 100 μl Serin lysis buffer (ice cold) to the cell pellet; resuspend the pellet and store on ice for 15 minutes. Remove debris by centrifugation at 15000×g for 10 min at 4° C. Transfer 80-100 μl lysate supernatant in 96 well plate and store immediately at −80° C.
Neutrophil Elastase Activity Assay:
Frozen lysates were thawn at 37° C. for 10 minutes and stored on ice. Protein content was determined with Bradford protein assay. Lysates were diluted to 0.2-0.5 mg/ml protein in serine protease buffer+HSA.
Standard: NE (100 μg/ml stock solution in Tris-buffer; stored at −80° C.) was diluted in Tris-buffer+HSA to 750 ng/ml, and further serially diluted 1:2 for the standard curve.
Buffer, blank, standard and lysate samples were transferred into 384 well plate
Blank: 5 μl Tris-buffer+10 μl Tris-buffer+HSA+5 μl Substrate
Standard: 5 μl Tris-buffer+10 μl NE (diff. conc.)+5 μl Substrate
Lysate: 5 μl Tris-buffer+10 μl Lysat+[…] Substrate
The increase in fluorescence (Ex360 nm/Em 460 nm) is determined over 30 minutes with a Molecular Device Spectramax M5 Fluorescence Reader. Kinetic Reduction (Vmax units/sec); 4 vmax points. The amount of neutrophil elastase (ng/ml) is calculated using the standard curve and the Spectramax software. The result is interpolated to ng/mg lysate protein using excel formula functions. […] IC50 is calculated using Graphpad Prism; nonlinear fitting (log(inhibitor) vs. response—Variable slope).

N#CC(Cc1ccc(-c2cnn(-c3ccccc3)c2)cc1F)NC(=O)[C@H]1N[C@@H]2CC[C@H]1C2 (stereo partly shown) [Example 78]
In vitro stability in human liver microsome incubations t½ [1]: 2.17 h

N#C[C@H](Cc1ccc(-c2ccc3c(c2)COC3=O)cc1F)NC(=O)[C@H]1N[C@@H]2CC[C@H]1C2 [Example 3, (1S,2S,4R)—N-[(1S)-1-cyano-2-[2-fluoro-4-(1-oxo-3H-isobenzofuran-5-yl)phenyl]ethyl]-3-azabicyclo[2.2.1]heptane-2-carboxamide]
IC50 [2]: 2.9 nM

CC1(C)OC(=O)c2ccc(-c3ccc(C[C@@H](C#N)NC(=O)[C@H]4N[C@@H]5CC[C@H]4C5)c(F)c3)cc21 [Example 156]
IC50 [2]: 2.3 nM

CC1CN(c2ccc(C[C@@H](C#N)NC(=O)[C@H]3N[C@@H]4CC[C@H]3C4)c(F)c2)C(C)CN1C (stereo partly shown) [Example 196]
IC50 [2]: 5.3 nM

CN1C(=O)Cc2ccc(-c3ccc(C[C@@H](C#N)NC(=O)[C@H]4N[C@@H]5CC[C@H]4C5)c(F)c3)cc21 [Example 2, (1S,2S,4R)—N-[(1S)-1-cyano-2-[2-fluoro-4-(1-methyl-2-oxo-indolin-6-yl)phenyl]ethyl]-3-azabicyclo[2.2.1]heptane-2-carboxamide]
IC50 [2]: 6.2 nM

CO[C@@H]1C[C@@H]2CN(c3ccc(C[C@@H](C#N)NC(=O)[C@H]4N[C@@H]5CC[C@H]4C5)c(F)c3)CCN2C1 [Example 269]
IC50 [2]: 5.5 nM

N#C[C@H](Cc1ccc(-c2csc(C(=O)N3CCN4CCOCC4C3)c2)cc1F)NC(=O)[C@H]1N[C@@H]2CC[C@H]1C2 (stereo partly shown) [Example 234]
IC50 [2]: 6.9 nM

CN1CCC(Oc2ccc(C[C@@H](C#N)NC(=O)[C@H]3N[C@@H]4CC[C@H]3C4)c(F)c2)CC1 [Example 319, (1S,2S,4R)—N-[(1S)-1-cyano-2-[2-fluoro-4-[(1-methyl-4-piperidyl)oxy]phenyl]ethyl]-3-azabicyclo[2.2.1]heptane-2-carboxamide]
IC50 [2]: 9.3 nM

CN1CCN(S(=O)(=O)c2cc(-c3ccc(C[C@@H](C#N)NC(=O)[C@H]4N[C@@H]5CC[C@H]4C5)c(F)c3)ccc2F)CC1 [Example 339]
IC50 [2]: 0.6 nM

N#CC(Cc1ccc(-c2ccc3c(c2)COC3=O)cc1F)NC(=O)[C@H]1N[C@@H]2CC[C@H]1C2 (stereo partly shown) [Example 11]
IC50 [2]: 8.7 nM

COCCN1CCN(C(=O)c2cc(-c3ccc(C[C@@H](C#N)NC(=O)[C@H]4N[C@@H]5CC[C@H]4C5)c(F)c3)cs2)CC1 [Example 228]
IC50 [2]: 4.6 nM

CS(=O)(=O)c1ccc(-c2ccc(C[C@@H](C#N)NC(=O)[C@H]3N[C@@H]4CC[C@H]3C4)c(F)c2)cc1 [Example 16]
IC50 [2]: 14.5 nM

N#C[C@H](Cc1ccc(N2C3CCC2CN(C2CCOC2)C3)cc1F)NC(=O)[C@H]1N[C@@H]2CC[C@H]1C2 (stereo partly shown) [Example 329]
IC50 [2]: 2.5 nM

CC(C)N1CCCN(c2ccc(C[C@@H](C#N)NC(=O)[C@H]3N[C@@H]4CC[C@H]3C4)c(F)c2)CC1 [Example 267]
IC50 [2]: 2.7 nM

CN1CCN(C(=O)c2ccc(-c3ccc(C[C@@H](C#N)NC(=O)[C@H]4N[C@@H]5CC[C@H]4C5)c(F)c3)cc2)CC1 [Example 185]
IC50 [2]: 3.9 nM

N#CC(Cc1ccc2c(c1)c(=O)[nH]c1c(F)c(F)ccc12)NC(=O)[C@H]1N[C@@H]2CC[C@H]1C2 (stereo partly shown) [Example 300]
IC50 [2]: 8.9 nM

N#C[C@H](Cc1ccc(-c2csc(C(=O)N3CCN(CC(F)(F)F)CC3)c2)cc1F)NC(=O)[C@H]1N[C@@H]2CC[C@H]1C2 [Example 232]
IC50 [2]: 5.2 nM

N#C[C@H](Cc1ccc(N2CCC(N3CCOCC3)CC2)cc1F)NC(=O)[C@H]1N[C@@H]2CC[C@H]1C2 [Example 193]
IC50 [2]: 6.5 nM

N#C[C@H](Cc1ccc([C@H]2CCN3CCOC[C@H]3C2)cc1F)NC(=O)[C@H]1N[C@@H]2CC[C@H]1C2 [Example 284]
IC50 [2]: 5.3 nM

N#C[C@H](Cc1ccc(C2=CCN(C3CCOC3)CC2)cc1F)NC(=O)[C@H]1N[C@@H]2CC[C@H]1C2 (stereo partly shown) [Example 332]
IC50 [2]: 5.8 nM

COCCN1C(=O)Cc2ccc(-c3ccc(C[C@@H](C#N)NC(=O)[C@H]4N[C@@H]5CC[C@H]4C5)c(F)c3)cc21 [Example 158]
IC50 [2]: 8.8 nM

N#C[C@H](Cc1ccc(N2CCN3CCOC[C@H]3C2)cc1F)NC(=O)[C@H]1N[C@@H]2CC[C@H]1C2 [Example 250]
IC50 [2]: 11.5 nM

CN1CC2(C1)CN(c1ccc(C[C@@H](C#N)NC(=O)[C@H]3N[C@@H]4CC[C@H]3C4)c(F)c1)C2 [Example 330]
IC50 [2]: 37.7 nM

N#C[C@H](Cc1ccc(-c2csc(C(=O)N3CCn4nccc4C3)c2)cc1F)NC(=O)[C@H]1N[C@@H]2CC[C@H]1C2 [Example 226]
IC50 [2]: 1.8 nM

CS(=O)(=O)c1cc(OCC(F)(F)F)cc(-c2ccc(C[C@@H](C#N)NC(=O)[C@H]3N[C@@H]4CC[C@H]3C4)c(F)c2)c1 [Example 276]
In vitro stability in human liver microsome incubations t½ [1]: 2.17 h

CN1CCN(c2ccc(C[C@@H](C#N)NC(=O)[C@H]3N[C@@H]4CC[C@H]3C4)c(F)c2)CC1 [Example 6, (1S,2S,4R)—N-[(1S)-1-cyano-2-[2-fluoro-4-(4-methylpiperazin-1-yl)phenyl]ethyl]-3-azabicyclo[2.2.1]heptane-2-carboxamide]
IC50 [2]: 2.4 nM

CN1C2CCC1CN(c1ccc(C[C@@H](C#N)NC(=O)[C@H]3N[C@@H]4CC[C@H]3C4)c(F)c1)C2 [Example 333]
IC50 [2]: 4.7 nM

CN(C)CCN1C(=O)Cc2cc(-c3ccc(C[C@@H](C#N)NC(=O)[C@H]4N[C@@H]5CC[C@H]4C5)c(F)c3)ccc21 [Example 279]
IC50 [2]: 1.9 nM

N#C[C@H](Cc1ccc(N2CCN(C3CCOC3)CC2)cc1F)NC(=O)[C@H]1N[C@@H]2CC[C@H]1C2 (stereo partly shown) [Example 331]
IC50 [2]: 6 nM

N#C[C@H](Cc1ccc([C@@H]2CCN3CCOC[C@H]3C2)cc1F)NC(=O)[C@H]1N[C@@H]2CC[C@H]1C2 [Example 283]
IC50 [2]: 4.5 nM

CN1CCCN(S(=O)(=O)c2ccc(-c3ccc(C[C@@H](C#N)NC(=O)[C@H]4N[C@@H]5CC[C@H]4C5)c(F)c3)cc2)CC1 [Example 340]
IC50 [2]: 0.8 nM

Cn1c(=O)c2cc(C[C@@H](C#N)NC(=O)[C@H]3N[C@@H]4CC[C@H]3C4)c(F)cc2c2ccccc21 [Example 326]
IC50 [2]: 1.9 nM

N#C[C@H](Cc1ccc(-c2ccc(S(=O)(=O)N3CCCCC3)cc2)cc1F)NC(=O)[C@H]1N[C@@H]2CC[C@H]1C2 [Example 177]
IC50 [2]: 9.2 nM

CCN1CC=C(c2ccc(C[C@@H](C#N)NC(=O)[C@H]3N[C@@H]4CC[C@H]3C4)c(F)c2)CC1 [Example 320]
IC50 [2]: 3.7 nM

CCN1CCN(c2ccc(C[C@@H](C#N)NC(=O)[C@H]3N[C@@H]4CC[C@H]3C4)c(F)c2)CC1 [Example 272]
IC50 [2]: 2.4 nM

CN(C)C1CCCN(c2ccc(C[C@@H](C#N)NC(=O)[C@H]3N[C@@H]4CC[C@H]3C4)c(F)c2)C1 (stereo partly drawn) [Example 344, (1S,2S,4R)—N-[(1S)-1-cyano-2-[4-[3-(dimethylamino)-1-piperidyl]-2-fluoro-phenyl]ethyl]-3-azabicyclo[2.2.1]heptane-2-carboxamide]
IC50 [2]: 4.1 nM

N#C[C@H](Cc1ccc(N2CCN3CCOCC3C2)cc1F)NC(=O)[C@H]1N[C@@H]2CC[C@H]1C2 (stereo partly shown) [Example 43]
IC50 [2]: 9.2 nM

N#CC(Cc1cc2c(=O)[nH]c3ccc(F)cc3c2cc1F)NC(=O)[C@H]1N[C@@H]2CC[C@H]1C2 (stereo partly shown) [Example 295]
IC50 [2]: 8.6 nM

N#C[C@H](Cc1ccc(-c2ccc3c(c2)NC(=O)C3)cc1F)NC(=O)[C@H]1N[C@@H]2CC[C@H]1C2 [Example 29]
IC50 [2]: 8.8 nM

CN1CCN(C(=O)c2cccc(-c3ccc(C[C@@H](C#N)NC(=O)[C@H]4N[C@@H]5CC[C@H]4C5)c(F)c3)c2)CC1 [Example 245]
IC50 [2]: 3.8 nM
